“And” between values parts separate entries of the source, which are not always exact repeats. Equal values may be shown once.
Key:
SCD1 = assay: Short-term Paigen-diet NASH mouse model: hepatic SCD1 gene expression (RT-qPCR); type: in vivo; conditions: SCD1 relative expression to vehicle group, 21 days
Protocol: To investigate whether Compound #37 prevents the development of pathology associated with NASH and steatosis in an acute exploratory disease model, a study was conducted using a diet-induced acute liver steatosis model in mice. As described below, in this study, C57BL/6J mice were initiated on the Paigen diet and simultaneously treated with Compound #37 (5, 20, and 40 mg/kg/day) or vehicle control (20% HPβCD 10 mL/kg/day) by oral gavage for 21 days.
After acclimation, 8-week old male C57Bl/6J mice (Charles River) weighing about 25 g were randomized in 4 groups according their body weight and treated once daily around noon by oral gavage with vehicle, or Compound #37 at various for 21 days as follows: Group 1: vehicle-20% (2-hydroxypropyl)-β-cyclodextrin (HP-β-CD) (n=10); Group 2: Compound #37, 5 mg/kg (n=10) Group 3: Compound #37, 20 mg/kg (n=10) Group 4: Compound #37, 40 mg/kg (n=10). During the treatment period, body weight and food intake (measured over 24h) were measured 3 times per week and once a week, respectively. During the acclimation, all mice were fed a standard diet (Special Diets Services RM1 (E), product no. 801492) and tap water ad libitum. After the acclimation period, mice were fed until the end of the experiment with a 60% high fat Paigen diet (60 kcal % fat, 1.25% cholesterol, and 0.5% cholate; D11061901, Research Diet) and tap water ad libitum.
Gene expression analysis. Hepatic expression levels of genes involved in lipid metabolism (FAS, SREBP1, ACC1, SCD1), cholesterol metabolism (HMG-CoAR, LDLR), SREBP proteolysis (SCAP, INSIG1), ER stress (PERK), oxidative stress (NRF2), inflammation (MCP-1), and fibrosis (collagen 1α1) were quantified by RTqPCR. Expression level was normalized to 18S gene expression and relative expression to vehicle group was calculated with the […] method.

[1] = tested on: diet-induced NASH obese insulin resistant mice; assay: Diet-induced NASH (DIN) obese insulin-resistant mouse model: plasma ALT and AST; type: in vivo; conditions: for ALAT area under the curve / ASAT area under the curve / ALAT, days of treatment 0 / ASAT, days of treatment 0 / ALAT, days of treatment 14 / ASAT, days of treatment 14 / ALAT, days of treatment 28 / ASAT, days of treatment 28 / ALAT, days of treatment 42 / ASAT, days of treatment 42 / ALAT, days of treatment 56 / ASAT, days of treatment 56 / ALAT, days of treatment 70 / ASAT, days of treatment 70: plasma; for ALAT area under the curve / ASAT area under the curve: 70-day treatment; for ALAT area under the curve / ASAT area under the curve / ALAT, days of treatment 0 / ASAT, days of treatment 0: 20 mg/kg; for ALAT, days of treatment 0 / ASAT, days of treatment 0: day 0 (baseline); for ALAT, days of treatment 14 / ASAT, days of treatment 14: day 14, 20 mg/kg; for ALAT, days of treatment 28 / ASAT, days of treatment 28: day 28, 20 mg/kg; for ALAT, days of treatment 42 / ASAT, days of treatment 42: day 42, 20 mg/kg; for ALAT, days of treatment 56 / ASAT, days of treatment 56: day 56, 20 mg/kg; for ALAT, days of treatment 70 / ASAT, days of treatment 70: day 70, 20 mg/kg
Protocol: (§1) Male C57Bl/6J mice (8 weeks old) were housed in enriched ventilated cages (31×12.5×12.7 cm) throughout the experimental phase. Animals' cages litters were changed at least once a week. Animal were housed 5 per cage on inverted 12-hour light cycle (at 09:00 am lights off), 22±2° C. and 55±10% relative humidity. The acclimation period was 20 days. During the acclimation period, all mice were fed a standard diet (RM1 (E) 801492, SDS) and tap water ad libitum. After the acclimation period, mice were fed with the DIN diet (60% fat, cholesterol enriched) and fructose-enriched tap water ad libitum until the end of the experiment.
(§2) At 6 weeks of diet, mice were 4-hour fasted (09:00 am to 1:00 pm) and blood (150 μl/EDTA) was collected at 01:00 pm by retro-orbital bleeding under isoflurane anesthesia. Mice were then allocated in 2 homogenous groups (n=12/group) according to their plasma levels of ALT (average levels: 685U/L), AST (average levels: 627U/L) and HOMA-IR index (average value: 4.7), into 2 homogenous groups (see values at day 0 in Tables 15A and 15B ALT/AST and Tables 16A and 16B for HOMA-IR). Mice were then treated once daily by oral gavage with vehicle (Group 1) or Compound #37 at 20 mg/kg (Group 2) for 70 days.
(§3) To investigate whether Compound #37 improves pre-existing steatosis/NASH pathology, a study was conducted using a 16-week diet-induced NASH mouse model. In this model, mice develop steatosis that progresses with inflammation and fibrosis that mimic many of the observed pathologies in human nonalcoholic fatty liver disease (NAFLD) and NASH (Hebbard & George, 2010). For 6 weeks, mice were fed a high-fat, high-cholesterol diet and provided drinking water containing fructose to induce liver pathology (Charlton et al, 2011). After 6 weeks, the mice were divided into 2 groups with similar mean aspartate aminotransferase (AST) and alanine aminotransferase (ALT) values (n=12 mice), although it should be noted that AST and ALT concentrations within both groups were higher and with greater variability than anticipated (e.g., mean ALT 677 U/L [SD, 401 U/L] in the vehicle control group and 693 U/L [SD, 365 U/L] in the Compound #37 group). After the animals were divided into 2 groups, the diet was continued for 10 additional weeks during which time 1 group received vehicle and the other was treated with 20 mg/kg/day Compound #37.

[2] = tested on: diet-induced NASH obese insulin resistant mice; assay: DIN mouse model: plasma lipid levels; type: in vivo; conditions: 20 mg/kg, end of treatment
Protocol: as §1, §2, §3

ob/ob mice = assay: ob/ob mice: liver Oil Red O staining; type: in vivo, mouse; conditions: 8 weeks
Protocol: Groups of mice were either untreated (group 1) or treated for 8 weeks with vehicle (group 2), or with Compound #37 at 5 mg/kg (group 3), 10 mg/kg (group 4), or 20 mg/kg (group 5). Treatment was daily by oral gavage in vehicle (20% HPβCD). Values are presented as mean±standard error of the mean (sem). A t test was performed to compare the untreated group and the vehicle group. Then Compound #37-treated groups were compared to the vehicle-treated group with a 1-way ANOVA+Dunnett's post-test. […] For each test, a p<0.05 was considered significant. Of note, animal #39, group 1 was excluded from the statistical analysis, due to low values for all parameters measured. Some other values were considered as out-liners and excluded from the statistical analysis when the value was far below the mean minus 2 SD. Excluded values are marked with an asterisk in Tables 21-23.

## CC(C)Cc1cc(-c2nc(-c3ccc(NS(=O)(=O)C(F)(F)F)cc3Cl)cs2)ccn1 [Compound 37, N-(3-chloro-4-(2-(2-isobutylpyridin-4-yl)thiazol-4-yl)phenyl)-1,1,1-trifluoromethanesulfonamide]
SCD1; 5 mg/kg, group mean
  2DDct: 1.05
SCD1; 5 mg/kg, individual animals, 5 mg/kg
  2DDct: 2.96 and 0.99 and 0.66 and 2.02 and 0.77 and 0.22 and 0.93 and 0.76 and 0.6 and 0.59
SCD1; 20 mg/kg, group mean
  2DDct: 1.18
SCD1; 20 mg/kg, individual animals, 20 mg/kg
  2DDct: 0.98 and 0.47 (2×) and 0.88 and 2.28 and 2
[1]; 20 mg/kg/day, 10 weeks
  hepatotoxicity (transaminase concentrations): No evidence of hepatotoxicity
[1]; group mean, n 11
  ALAT area under the curve: 12252 U/L · day
  ASAT area under the curve: 10763 U/L · day
  ALAT, days of treatment 56: 136 U/L
  ASAT, days of treatment 56: 126 U/L
  ALAT, days of treatment 70: 413 U/L
  ASAT, days of treatment 70: 281 U/L
[1]; individual animals
  ALAT area under the curve: 18578 U/L · day and 17206 U/L · day and 11865 U/L · day and 9163 U/L · day and 5418 U/L · day and 9331 U/L · day and 17759 U/L · day and 11949 U/L · day and 16954 U/L · day and 8862 U/L · day and 7686 U/L · day
  ASAT area under the curve: 18662 U/L · day and 15001 U/L · day and 8456 U/L · day and 8141 U/L · day and 5607 U/L · day and 6573 U/L · day and 11550 U/L · day and 10388 U/L · day and 13167 U/L · day and 11690 U/L · day and 9163 U/L · day
  ALAT, days of treatment 0: 1520 U/L and 698 U/L and 955 U/L and 551 U/L and 226 U/L and 365 U/L and 625 U/L and 563 U/L and 830 U/L and 662 U/L and 260 U/L and 1065 U/L
  ASAT, days of treatment 0: 1440 U/L and 875 U/L and 584 U/L and 435 U/L and 217 U/L and 269 U/L and 464 U/L and 500 U/L and 725 U/L and 730 U/L and 283 U/L and 860 U/L
  ALAT, days of treatment 14: 250 U/L and 252 U/L (2×) and 218 U/L and 200 U/L and 92 U/L and 198 U/L and 256 U/L and 410 U/L and 690 U/L and 134 U/L and 106 U/L
  ASAT, days of treatment 14: 296 U/L and 268 U/L and 206 U/L and 228 U/L and 124 U/L and 150 U/L and 190 U/L and 288 U/L and 440 U/L and 248 U/L and 428 U/L and 126 U/L
  ALAT, days of treatment 28: 176 U/L and 118 U/L and 96 U/L and 68 U/L and 58 U/L and 316 U/L and 226 U/L and 154 U/L and 160 U/L and 208 U/L and 38 U/L and 136 U/L
  ASAT, days of treatment 28: 238 U/L and 98 U/L and 84 U/L and 76 U/L and 80 U/L and 168 U/L and 140 U/L and 102 U/L and 222 U/L and 288 U/L and 68 U/L and 190 U/L
  ALAT, days of treatment 42: 68 U/L and 280 U/L and 52 U/L and 50 U/L (2×) and 136 U/L and 58 U/L and 168 U/L and 92 U/L and 66 U/L and 370 U/L and 322 U/L
  ASAT, days of treatment 42: 88 U/L and 132 U/L and 80 U/L and 110 U/L and 140 U/L and 96 U/L and 200 U/L and 106 U/L and 130 U/L and 76 U/L and 174 U/L and 296 U/L
  ALAT, days of treatment 56: 276 U/L and 80 U/L and 48 U/L and 68 U/L and 52 U/L and 54 U/L and 112 U/L and 130 U/L and 534 U/L and 70 U/L and 74 U/L
  ASAT, days of treatment 56: 346 U/L and 122 U/L and 92 U/L and 108 U/L and 60 U/L and 96 U/L and 132 U/L and 112 U/L and 182 U/L and 130 U/L and 164 U/L
  ALAT, days of treatment 70: 364 U/L and 1030 U/L and 326 U/L and 372 U/L and 210 U/L and 342 U/L and 1150 U/L and 358 U/L and 142 U/L (2×) and 104 U/L
  ASAT, days of treatment 70: 258 U/L and 648 U/L and 162 U/L and 206 U/L and 180 U/L and 160 U/L and 524 U/L and 376 U/L and 182 U/L and 198 U/L and 192 U/L
[1]; group mean, n 12
  ALAT, days of treatment 0: 693 U/L
  ASAT, days of treatment 0: 615 U/L
  ALAT, days of treatment 14: 255 U/L
  ASAT, days of treatment 14: 249 U/L
  ALAT, days of treatment 28: 146 U/L
  ASAT, days of treatment 28: 146 U/L
  ALAT, days of treatment 42: 143 U/L
  ASAT, days of treatment 42: 136 U/L
[2]; p<0.05 vs. vehicle
  HDL-cholesterol increase: 31%
[2]; group mean, n 11
  plasma HDL cholesterol: 1.42 g/L
  plasma cholesterol: 1.82 g/L
  plasma free fatty acids: 0.59 mM
  plasma triglycerides: 0.40 g/L
[2]; individual animals
  plasma HDL cholesterol: 1.65 g/L and 1.68 g/L and 1.10 g/L and 1.47 g/L (2×) and 1.90 g/L and 1.12 g/L and 1.43 g/L and 0.62 g/L and 1.62 g/L and 1.56 g/L
  plasma cholesterol: 2.49 g/L and 2.36 g/L and 1.95 g/L and 1.67 g/L and 2.12 g/L and 1.38 g/L and 1.62 g/L and 1.15 g/L and 1.57 g/L and 1.86 g/L and 1.90 g/L
  plasma free fatty acids: 0.73 mM and 0.63 mM and 0.59 mM (3×) and 0.29 mM and 0.65 mM and 0.56 mM and 0.71 mM and 0.44 mM and 0.67 mM
  plasma triglycerides: 0.37 g/L (2×) and 0.3 g/L and 0.42 g/L and 0.35 g/L and 0.40 g/L and 0.34 g/L and 0.45 g/L and 0.50 g/L and 0.47 g/L and 0.39 g/L
ob/ob mice; 5 mg/kg daily oral gavage, group mean
  liver oil-red-O quantification: 6.7%
ob/ob mice; 5 mg/kg daily oral gavage, individual animal values, 5 mg/kg
  liver oil-red-O quantification: 0.67% and 2.91% and 8.82% and 9.22% and 4.41% and 6.15% and 8.06% and 8.93% and 8.85% and 9.33%
ob/ob mice; 10 mg/kg daily oral gavage, group mean
  liver oil-red-O quantification: 13.23%
ob/ob mice; 10 mg/kg daily oral gavage, individual animal values, 10 mg/kg
  liver oil-red-O quantification: 19.18% and 18.46% and 13.25% and 3.65% and 8.46% and 8.67% and 16.07% and 17.12% and 16.00% and 11.43%
ob/ob mice; 20 mg/kg daily oral gavage, group mean
  liver oil-red-O quantification: 8.5%
ob/ob mice; 20 mg/kg daily oral gavage, individual animal values, 20 mg/kg
  liver oil-red-O quantification: 13.45% and 0.42% and 15.53% and 9.89% and 4.95% and 8.17% and 4.74% and 7.06% and 15.71% and 5.38%
